{"source": "patent US12350364B2", "about": "“Lipid body compositions, products made therefrom, methods of making same, and methods of use” (Xylome Corporation, priority 2019, dated 2025)", "assay_type_in_all_cases": "physicochemical", "key": {"[1]": {"experiment": "Drug loading into lipid-body composition and release into PBS (UV-VIS / HPLC)", "details": "for drug released, concentration: 6-fold dilution"}, "[2]": {"experiment": "Lidocaine binding and partitioning into lipid bodies (UV 260 nm after 0.2 μm filtration)", "excerpt": "Lipid bodies were cleared of excipients and antimicrobial preservative by undergoing a 1:10 wash in ethanol followed by rehydration in distilled water."}, "[3]": {"experiment": "Uptake of hydrophobic dyes by lipid bodies (mixing, centrifugation/flotation)", "details": "for uptake of hydrophobic model compound into lipid bodies: about 50% lipid bodies, mixed about 10 minutes, centrifuged", "experimental": "In this example, fermentations of different engineered hyper lipogenic Lipomyces starkeyi were used to create lipid bodies. Using the engineered hyper-lipogenic strain XYL-403, compositions of lipid bodies were prepared with a diameter from 6.9+/−1.4 microns when measured under a microscope using a calibrated Petroff Hauser counter. Following the initial preparation of lipid bodies, the lipid bodies were fused using high levels of salt at 1M NaCl, solvents such as ethanol at 20% (v/v) in water, and application of shear force using centrifugation (FIG. 12A). Homogenization, filtration, or chemical treatments can be used as alternatives to or in additional centrifugation to induce shear force. Thus, compositions utilizing even larger lipid bodies (e.g., between 12 to 50 μm) can be developed using physically modified and merged lipid bodies. The advantages of larger lipid bodies can be extended using high total volumes of drug carrying capacity.\nThis example opens the possibility of even higher volumetric carrying capacity of lipid-body compositions of the invention when expanded to the upper limit of known diameter.\nIn this example, lipid bodies at about 50% concentration in base composition of example 1A were subjected to the addition of concentrated Nile red, which had been solubilized in DMSO and used in this example as a surrogate for a hydrophobic compound or hydrophobic drug. The lipid-body composition was mixed with Nile red for 10 minutes and centrifuged. After centrifugation, the lipid bodies separate by flotation and all of the Nile red entered into the lipid bodies. The lipid bodies remain hydrophilic on the exterior of the lipid body spheres and continue to feel aqueous.\nIn another version of this example, lipid bodies at approximately 50% by dry weight were mixed with a second hydrophobic model drug compound, Sudan black. […] Similar to the Nile red results, Sudan black is shown to be taken up by lipid bodies (FIG. 13B)."}, "[4]": {"details": "Example 19: dry powder loading plus 33 μL PBS, UV 350 nm"}, "[5]": {"details": "100 μL of 5 mg/mL stock per 1 g lipid bodies, 300 mg in 1 mL PBS, 15 min, room temperature, UV 343 nm"}}, "data": [{"smiles": "COc1cc2c(c(OC)c1OC)-c1ccc(OC)c(=O)cc1[C@@H](NC(C)=O)CC2", "note": "[colchicine]", "values": [{"measurement": "colchicine released", "setting": "[1]; Example 15: 55% aqueous/45% drug-containing lipid-body composition, 100 μL of 2 mg/mL stock per 1 g lipid body, 300 mg in 1 mL PBS, 15 min, room temperature, UV 350 nm", "value": 5.9, "unit": "µg/mL"}, {"measurement": "drug release", "setting": "[1]; Example 15: 55% aqueous/45% drug-containing lipid-body composition, 300 mg in 1 mL PBS, 15 min, room temperature, UV 350 nm", "value": 9.8, "unit": "%"}, {"measurement": "colchicine released", "setting": "[1]; Example 16: 62% liquid/38% composition, HPLC", "value": 41, "unit": "%"}, {"measurement": "drug released", "setting": "[1]; Example 16: 62% liquid/38% composition, HPLC (350 nm, 2.9 minutes)", "value": 61.5, "unit": "µg/mL"}, {"measurement": "released, % of the total colchicine", "setting": "[1]; Example 16: 62% liquid/38% composition, UV 350 nm", "value": 34.5, "unit": "%"}, {"measurement": "drug released", "setting": "[1]; Example 16: 62% liquid/38% drug-containing lipid-body composition, 5 mg/mL stock, 200 μL PBS added, 1 mL PBS, room temperature, UV 350 nm", "value": 51.8, "unit": "µg/mL"}, {"measurement": "released, % of the total compound loaded", "setting": "[1]; Example 17: 67% liquid/33% composition, UV 350 nm", "value": 15.1, "unit": "%"}, {"measurement": "colchicine released", "setting": "[1]; Example 17: 67% liquid/33% drug-containing lipid-body composition, 178 μL PBS added, UV 350 nm", "value": 22.6, "unit": "µg/mL"}, {"measurement": "colchicine released", "setting": "[1]; Example 18: 30 mg dry powder mixed into 1 g lipid bodies, 300 mg in 2 mL PBS, 15 min, room temperature, UV 350 nm", "value": "3,390 μg/mL"}, {"measurement": "released, % of the total colchicine present", "setting": "[1]; Example 18: dry powder loading, 50% lipid-body composition, UV 350 nm", "value": 37.6, "unit": "%"}, {"measurement": "colchicine released", "setting": "[1]; [4]", "value": 4000, "unit": "µg/mL"}, {"measurement": "released, % of the total colchicine", "setting": "[1]; [4]", "value": 44, "unit": "%"}]}, {"smiles": "CCN(CC)CC(=O)Nc1c(C)cccc1C", "note": "[Lidocaine]", "values": [{"measurement": "Lidocaine in Aqueous Cream Fraction", "setting": "[2]; 500 μg Lidocaine in Salt (1M NaCl)", "value": 72, "unit": "%"}, {"measurement": "Lidocaine in Aqueous Cream Fraction", "setting": "[2]; 500 μg Lidocaine in Water", "value": 83, "unit": "%"}, {"measurement": "Lidocaine in Aqueous Cream Fraction", "setting": "[2]; Control: 500 μg Lidocaine without Lipid Bodies and Filtered", "value": 100, "unit": "%"}]}, {"smiles": "CCN(CCO)CCCC(C)Nc1ccnc2cc(Cl)ccc12", "note": "(stereo not drawn) [hydroxychloroquine]", "values": [{"measurement": "total release", "setting": "[1]; [5]", "value": 10.4, "unit": "%"}, {"measurement": "drug released, concentration", "setting": "[1]; [5]", "value": 5.66, "unit": "µg/mL"}]}, {"smiles": "CCN(CC)c1ccc2nc3c4ccccc4c(=O)cc-3oc2c1", "note": "[Nile red]", "values": [{"measurement": "uptake of hydrophobic model compound into lipid bodies", "setting": "[3]", "value": "quantitatively complete"}]}, {"smiles": "CCCCc1nc(Cl)c(CO)n1Cc1ccc(-c2ccccc2-c2nn[nH]n2)cc1", "note": "[Losartan]", "values": [{"measurement": "Losartan released into 1 mL PBS, concentration", "setting": "[1]; 100 μL of 5 mg/mL stock per 1 g lipid bodies, 300 mg in 1 mL PBS, HPLC 210 nm, 3.9 minutes", "value": 54.4, "unit": "µg/mL"}, {"measurement": "total release", "setting": "[1]; Losartan, 300 mg in 1 mL PBS, HPLC 210 nm", "value": 36.3, "unit": "%"}]}, {"smiles": "CC(C)OC(=O)CCC/C=C\\C[C@@H]1[C@@H](/C=C/[C@@H](O)COc2cccc(C(F)(F)F)c2)[C@H](O)C[C@@H]1O", "note": "[Travoprost]", "values": [{"measurement": "Travoprost released", "setting": "[1]; first procedure: 2 μL of 25 mg/mL per 1 g lipid bodies, 300 mg in 1 mL PBS, HPLC 210 nm", "value": 50, "unit": "%"}, {"measurement": "Travoprost release", "setting": "[1]; second procedure: 250 μg evaporated concentrate per 1 g lipid bodies, 100 mg in 1 mL PBS, HPLC", "value": 60.7, "unit": "%"}]}, {"smiles": "CCN(CC)CCCC(C)Nc1ccnc2cc(Cl)ccc12", "note": "(stereo not drawn) [chloroquine]", "values": [{"measurement": "total release", "setting": "[1]; [5]", "value": 8.1, "unit": "%"}, {"measurement": "drug released, concentration", "setting": "[1]; [5]", "value": 12.1, "unit": "µg/mL"}, {"measurement": "total release", "setting": "[1]; Example 21, repeat dilution (1 to 3 then 1 to 2)", "value": 8.1, "unit": "%"}]}, {"smiles": "CC1(C)Nc2cccc3c(N=Nc4ccc(N=Nc5ccccc5)c5ccccc45)ccc(c23)N1", "note": "[Sudan black]", "values": [{"measurement": "uptake of hydrophobic model compound into lipid bodies", "setting": "[3]", "value": "essentially all of the Sudan black loaded into the lipid bodies"}, {"measurement": "taken up into the lipid bodies", "setting": "[3]; merged very large lipid bodies (1M NaCl, 20% ethanol, centrifugation)", "value": "~100", "unit": "%"}]}]}
